Results from patent publication US8546394B2, “Substituted [1,2,4]triazolo[4,3-A]pyrazine 11-beta-hydroxysteroid dehydrogenase inhibitors” (Bristol-Myers Squibb Company, priority 2007, dated 2013).
Structures can show the parent of a compound that is named as a salt.

System: mildly overweight individuals with type 2 diabetes
Assay: not given
Details: seven day study, versus placebo; cited from earlier work

Which hepatic glucose production does the source give for `CC1(C)[C@@H](OC(=O)CCC(=O)O)CC[C@]2(C)[C@H]3C(=O)C=C4[C@@H]5C[C@@](C)(C(=O)O)CC[C@]5(C)CC[C@@]4(C)[C@]3(C)CC[C@@H]12` [carbenoxolone] here?
The hepatic glucose production was “decrease in hepatic glucose production”.

Biological target: T1, recombinant human 11beta-HSD1 (Homo sapiens, UniProt P28845)
T1 construct: Full length recombinant human 11β-HSD1 cDNAs and the cDNA encoding human 11β-HSD2 were expressed stably in HEK 293 EBNA cells; made in house
Assay: 11β-HSD1 SPA enzyme assay (in vitro inhibition, human microsomes, 3H-cortisone)
Assay type: biochemical
Details: microsomes from HEK 293 EBNA cells, 40 nM 3H-cortisone, 4 hrs room temperature
Protocol: The in vitro inhibition of recombinant human 11beta-HSD1 was determined as follows.
[^3H]-Cortisone with a specific radioactivity of 50 Ci/mmol (ART 743, Lot: 050906) was from American Radiolabeled Chemicals, Inc. (St Louis, Mo.); monoclonal ab to Cortisol (P01-9294M-P, Lot: L-28) was from East Coast Bio., (North Berwick, Me.); Protein A-yttrium silicate, type-1, SPA bead NJ® (RPN-143) was from Amersham LifeSciences, (Piscataway, N.J.); 384 well-Optiplate384® (#6007299) was from PerkinElmer (Boston, Mass.); DPBS, pH 7.4 (14040) is from GIBCO, (Grand Island, N.Y.); carbenoxolone (C4790) is from Sigma, (St Louis, Mo.).
Full length recombinant human 11β-HSD1 cDNAs and the cDNA encoding human 11β-HSD2 were expressed stably in HEK 293 EBNA cells. Cells were grown in DMEM (high glucose) containing MEM non-essential amino acids, L-glutamine, hygromycin B (200 μg/ml), and G-418 (200 μg/ml) in the presence of 10% FBS.
Human 11β-HSD1 transfected HEK 293 EBNA cells were grown to 80% confluency and the cell pellet was quick frozen and stored at −80° C. before purification. Cell paste, 40 g from −80° C. storage, was thawed in water and then 100 ml of homogenization buffer H (0.01 M sodium phosphate pH 6.5 containing 0.25 M sucrose and protease inhibitor cocktail (Roche #1836145 1 tablet per 50 ml) were added to completely thaw the paste. The cell paste suspension was homogenized using a Polytron for 20 seconds to create a homogeneous mixture. Additional buffer H was added to a volume of 300 ml and cells were broken open using a N2-bomb (at 4° C.) in two batches by treating at 500 psi. The extract was centrifuged at 750×g for 30 min. The supernatant was centrifuged at 20,000×g for 30 min. The supernatant was further centrifuged at 105,000×g for 60 min. The 105,000×g pellet was resuspended in buffer H and centrifuged at 105,000×g for 60 min. The microsome pellet was scraped from the bottom of tube and resuspended in 0.01M phosphate buffer, pH 6.5 containing protease inhibitors (Roche #1836145, 1 tablet per 50 ml). Aliquots were stored at −80° C. until needed. The protein concentration was measured by the BioRad method using BSA standard.
Compounds were dissolved in DMSO to obtain 10 mM stock concentrations. From the 10 mM stock, the compounds were diluted in DMSO to achieve the concentrations.
11β-HSD1 SPA Enzyme Assay
11β-HSD1 was assayed by Scintillation Proximity assay in a 384-well Perkin Elmer white plate. The dose response of the compounds was determined using 11 half-log dilutions of compound in DMSO in duplicate. To each well, 0.5 μl of compound dilution in DMSO were added. 15 μl of assay buffer (for blanks) or 15 μl of human microsomes in assay buffer were added next and the plates were incubated for 10 min at room temperature. The final microsomal protein concentration was 1.1 μg/assay. Duplicates were in the same plate one row below the other. 10 μl of ^3H-cortisone (final concentration 40 nM) was added to each well and the plate was spun down to mix and bring down the contents to the bottom of the wells. The plates were incubated at room temperature with gentle shaking for 4 hrs. The reaction was stopped with addition of 10 μl of 10 mM carbenoxolone. Then, 0.5 mg of yttrium silicate SPA beads coupled to anti-cortisol antibody in 20 μl were added to all the wells of plate, which were spun down once more and incubated at room temperature overnight. The plate was read in a TopCount® (1 min/well). Data were uploaded automatically to Tool Set, a Lead Evaluation informatics program for data capture and calculation. Graphs were generated with the Curve Master program.

T1 sequence (P28845 whole entry): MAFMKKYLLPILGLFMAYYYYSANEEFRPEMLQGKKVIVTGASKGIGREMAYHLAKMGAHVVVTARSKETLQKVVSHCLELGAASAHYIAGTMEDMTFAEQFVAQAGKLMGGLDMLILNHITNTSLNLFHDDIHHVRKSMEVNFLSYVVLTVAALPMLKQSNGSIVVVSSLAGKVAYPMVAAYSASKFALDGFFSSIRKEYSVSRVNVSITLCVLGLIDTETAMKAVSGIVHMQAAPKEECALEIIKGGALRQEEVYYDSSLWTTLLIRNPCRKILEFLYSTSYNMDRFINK

Which IC50 does the source give for `CC(C)(c1ccc(Cl)cc1)c1nnc2c(C3CC3)nccn12` [Example 1, 3-(2-(4-Chlorophenyl)propan-2-yl)-8-cyclopropyl-[1,2,4]triazolo[4,3-a]pyrazine] here?
The IC50 was 1.8 nM.

Which IC50 does the source give for `Clc1ccc(C2(c3nnc4nc(C5CC5)ccn34)CC2)cc1` [Example 3, 3-(1-(4-Chlorophenyl)cyclopropyl)-7-cyclopropyl-[1,2,4]triazolo[4,3-a]pyrimidine] here?
Its IC50 is 453 nM.

Which IC50 does the source give for `FC(F)(F)Oc1ccccc1Oc1nccn2c(C3(c4ccc(Cl)cc4)CC3)nnc12` [Example 4, 8-(2-(Trifluoromethoxy)phenoxy)-3-(1-(4-chlorophenyl)cyclopropyl)-[1,2,4]triazolo[4,3-a]pyrazine] here?
Its IC50 is 0.5 nM.

Which IC50 does the source give for `Clc1ccc(C2(c3nnc4c(C5CC5)nccn34)CCC2)c(Cl)c1` [Example 6] here?
The IC50 was 0.6 nM.

For `CC(C)(Oc1ccccc1)c1nnc2c(Cl)nccn12` [Example 16], which IC50 is on record?
The IC50 was 6030 nM.

Which IC50 does the source give for `C=CCCc1nccn2c(C3(c4ccc(Cl)cc4)CC3)nnc12` [Example 25] here?
Its IC50 is 1.3 nM.

For `OC12CCC(c3nnc4c(Oc5ccccc5Cl)nccn34)(CC1)C2` [Example 27], which IC50 is on record?
The IC50 was 336 nM.

For `Clc1ccc(C2(c3nnc4c5sccc5ncn34)CC2)cc1` [Example 28, 3-(1-(4-Chlorophenyl)cyclopropyl)thieno[2,3-e][1,2,4]triazolo[4,3-c]pyrimidine], which IC50 is on record?
Its IC50 is 86 nM.

Which IC50 does the source give for `Clc1ccc(C2(c3nnc4c5c(cnn34)CCCC5)CC2)cc1` [Example 29, 3-(1-(4-Chlorophenyl)cyclopropyl)-7,8,9,10-tetrahydro-[1,2,4]-triazolo[3,4-a]phthalazine TFA Salt] here?
The IC50 was 12 nM.

With `CC(C)(O)c1nccn2c(C3(c4ccc(Cl)cc4)CC3)nnc12` [Example 35, 2-(3-(1-(4-Chlorophenyl)cyclopropyl)-[1,2,4]triazolo[4,3-a]pyrazin-8-yl)propan-2-ol TFA salt] as the molecule, how does the IC50 read?
The IC50 was 7.9 nM.

Which IC50 does the source give for `CC(C)(O)c1ccnn2c(C3(c4ccc(Cl)cc4)CC3)nnc12` [Example 36, 2-(3-(1-(4-Chlorophenyl)cyclopropyl)-[1,2,4]-triazolo[4,3-b]pyridazin-8-yl)propan-2-ol] here?
The IC50 was 1.2 nM.

For `CC(C)(Oc1ccc(Cl)cc1Cl)c1nnc2c(C3CC3)nccn12` [Example 38], which IC50 is on record?
Its IC50 is 1.8 nM.

For `CC(C)(c1ccc(F)cc1)c1nnc2c(Cl)nccn12` [Example 41], which IC50 is on record?
The IC50 was 5130 nM.
